{
  "source": "paper PMC4836675",
  "about": "“Tetrabromobisphenol A Is an Efficient Stabilizer of the Transthyretin Tetramer” (PLoS ONE, 2016)",
  "key": {"WT-TTR": {"biological_target": "T1, WT-TTR (Homo sapiens, UniProt P02766)", "T1 construct": "made in house; host or cells: E. coli BL21", "assay": "Turbidity assay of TTR aggregation at low pH", "format": "biochemical", "details": "WT-TTR 15 μM tetramer, compound 15 μM, pH 4.5, 72 h", "protocol": "(§1) Amyloid formation by TTR can be induced at low pH, which results in disruption of the tetramer and the subsequent formation of aggregates. This event can be monitored by a simple turbidity measurement.\n(§2) Aggregation of WT-TTR and V30M-TTR was initiated by lowering the pH to 4.5 using a sodium-acetate/acetic acid buffer followed by incubation for 72 h. The percentage of aggregation relative to the control was monitored by measuring the turbidity at 400 nm.\n(§3) In order to prevent microbial growth, all samples and controls were supplemented with 0.05% NaN3. Dissociation and subsequent aggregation of TTR was initiated by adding 50 mM sodium acetate at pH 4.5 and incubating at 37°C under agitation conditions. The formation of TTR aggregates was monitored by turbidity measurement at 400 nm in a TECAN Safire plate reader after incubating for 72 h. All experiments were performed five times."}, "V30M-TTR": {"biological_target": "T2, V30M-TTR (Homo sapiens, UniProt P02766, V50M)", "T2 construct": "made in house; host or cells: E. coli BL21", "assay": "Turbidity assay of TTR aggregation at low pH", "format": "biochemical", "details": "V30M-TTR 15 μM tetramer, compound 15 μM, pH 4.5, 72 h", "protocol": "as §1, §2, §3"}, "[1]": {"details": "cited from earlier work; for Serum concentration: after seven days, 12 hours after last dose"}, "[2]": {"system": "SH-SY5Y neuroblastoma cells", "assay": "TTR-mediated cytotoxicity, resazurin cell-viability assay", "details": "TTR 15 μM, compound 15 μM, 72 h", "protocol": "The cytotoxic effect of TTR was monitored by a decrease in the conversion of resazurin to resorufin.\nCell viability was measured with a resazurin assay [46]. Data are reported as the mean cell viability ± the standard deviation (n = 3, ** p < 0.01; *** p < 0.001). […] The statistical significance was assessed using one-way ANOVA.\nThe human neuroblastoma cell line SH-SY5Y was obtained from the European Collection of Cell Cultures (Centre for Applied Microbiology and Research). SH-SY5Y cells were cultured according to a previous report [79] with minor modifications. The cells were grown in MEM and GlutaMax medium (Gibco) and supplemented with 10% (v/v) fetal bovine serum (Gibco), 100 units/mL penicillin, 100 μg/mL streptomycin (Gibco), and 1% non-essential amino acid solution (Gibco). Cultures were maintained in an incubator at 37°C with a humidified atmosphere of 5% CO2. […] All experiments were performed in triplicate."}, "TTR": {"biological_target": "T3, TTR (Homo sapiens, UniProt P02766)", "T3 construct": "made in house; host or cells: E. coli BL21", "assay": "Isothermal titration calorimetry (ITC)", "format": "binding", "method": "ITC experiments were performed using an Auto-iTC200 (MicroCal) at 25°C. […] For each experiment, 19 automated injections of 2 μL and a duration 0.8 s were performed with 300 s intervals between each injection and with a stirring speed of 1000 rpm. The titrations were done with high feedback and a filter period of 5 s and were repeated twice. Calorimetric data were plotted and fitted using the standard single-site binding model."}, "[3]": {"details": "cited from earlier work"}, "Sprague—Dawley rats": {"system": "Sprague—Dawley rats", "parameters": "method as in PMID 25523853", "details": "prolonged daily oral 100, 300, or 1000 mg·kg−1·day−1; cited from earlier work"}, "[4]": {"system": "Salmonella typhimurium, Escherichia coli, and yeast cells", "details": "with and without metabolic activation; cited from earlier work"}, "plasma TTR": {"biological_target": "plasma TTR (Homo sapiens, UniProt P02766)", "assay": "Drug efficacy/selectivity in human plasma (urea denaturation, western blot of monomeric TTR)", "protocol": "The ability of a drug to stabilize the tetrameric form of TTR by binding to the hydrophobic hormone binding pockets at the dimer interface of the tetramer is directly correlated to the drug’s binding affinity.\nThe dissociation of plasma TTR was initiated by the addition of urea at a final concentration of 4.0 M. The dissociation to monomeric TTR was monitored by western blot and quantified with the ImageJ 2.0 software.\nBriefly, plasma was buffered by the addition of 20 μL phosphate buffer from a 1 M stock solution to reach a final concentration of 20 mM, pH 7.4. […] To initiate the denaturation of the TTR tetramer, urea was added to a final concentration of 4 M followed by 18 h of incubation at 25°C. In the absence of a stabilizing ligand, this treatment causes dissociation and monomerization of the TTR tetramer. […] The monomeric band on the membrane was visualized by western blot according to standard protocols using a rabbit anti-TTR antibody (anti-prealbumin, DAKO) followed by a horseradish peroxidase-labeled antibody (anti-rabbit HRP, GE Healthcare). Nonspecific binding of antibodies was prevented by the addition of 5% fat-free powdered milk and 0.3% Tween-20. Enhanced chemiluminescence (ECL-prime, GE Healthcare) was used to visualize the bound antibodies. The bands containing the TTR monomer were quantified through densitometric analysis using the ImageJ 1.48 program."}, "[5]": {"parameters": "method as in earlier work", "details": "steady state after 14 days of daily administration; cited from earlier work"}, "[6]": {"details": "rats, single oral dose 300 mg/kg body weight"}},
  "note": "Entries after “also recorded” stand apart in the source; their conditions may differ. Like-named read-outs stand apart in the source and are kept apart here.",
  "data": [
    {"molecule": "O=C(O)c1cc(-c2ccc(F)cc2F)ccc1O", "note": "[Diflunisal, diflunisal]", "values": [
      {"measurement": "Aggregation of TTR at low pH (turbidity at 400 nm)", "setting": "WT-TTR", "result": "prevents the aggregation"},
      {"measurement": "Aggregation of TTRVal30Met at low pH (turbidity at 400 nm)", "setting": "V30M-TTR", "result": "prevents the aggregation"},
      {"measurement": "Serum concentration", "setting": "[1]; 250 mg twice per day", "result": 145, "unit": "µM"},
      {"measurement": "Serum concentration", "setting": "[1]; 500 mg twice per day", "result": 420, "unit": "µM"},
      {"measurement": "Bioavailability", "setting": "[1]; oral administration", "result": "good"},
      {"measurement": "Cell survival in presence of cytotoxic TTR", "setting": "[2]", "result": "increased cell survival to essentially that of the untreated control cells"}
    ]},
    {"molecule": "CC(C)(c1cc(Br)c(O)c(Br)c1)c1cc(Br)c(O)c(Br)c1", "note": "[TBBPA, 2,2’,6,6’-tetrabromo-4,4’-isopropylidentediphenol]", "values": [
      {"measurement": "Kd", "setting": "TTR; 25°C, assuming independent binding sites (single-site model), read-out: Binding affinity to TTR (Kd)", "result": 20, "unit": "nM"},
      {"measurement": "Kd", "setting": "TTR; negative cooperativity, first site, read-out: Kd1", "result": 6, "unit": "nM"},
      {"measurement": "Kd", "setting": "TTR; read-out: Kd2, negative cooperativity, second site", "result": 975, "unit": "nM"},
      {"measurement": "Aggregation of TTR at low pH (turbidity at 400 nm)", "setting": "WT-TTR", "result": "efficiently prevents the aggregation"},
      {"measurement": "Aggregation of TTRVal30Met at low pH (turbidity at 400 nm)", "setting": "V30M-TTR", "result": "efficiently prevents the aggregation"},
      {"measurement": "Oral bioavailability", "setting": "[3]; animals, oral intake, compared to tafamidis and diflunisal", "result": "low bioavailability"},
      {"measurement": "Half-lives", "setting": "[3]; oral 200, 500 and 1000 mg/kg", "result": "7.5 to 9.5", "unit": "h"},
      {"measurement": "Half-life", "setting": "[3]; [6]", "result": "around 13 h"},
      {"measurement": "Time of maximal serum concentration", "setting": "[3]; [6]", "result": 3, "unit": "h"},
      {"measurement": "Elimination half-life", "setting": "[3]; single oral dose 250 mg/kg body weight, 14C-TBBPA, non-compartmental model", "result": "around 4.5 h"},
      {"measurement": "Time of maximal plasma concentration post-dose", "setting": "[3]; single oral dose 250 mg/kg body weight, 14C-TBBPA", "result": 127, "unit": "min"},
      {"measurement": "Mortality and neuropathological ailments", "setting": "Sprague—Dawley rats", "result": "did not result in increased mortality or the development of neuropathological ailments"},
      {"measurement": "Genotoxicity in Ames tests", "setting": "[4]", "result": "negative results"},
      {"measurement": "Cell survival in presence of cytotoxic TTR", "setting": "[2]", "result": "increased cell survival to essentially that of the untreated control cells"},
      {"measurement": "IC50", "setting": "plasma TTR; IC50 plasma, human plasma, 2 h incubation, 4 M urea, three independent experiments", "result": "3300 ± 500", "unit": "nM"},
      {"measurement": "Saturation of the high-affinity binding site of TTR", "setting": "plasma TTR; at a TBBPA plasma concentration of 5 μM, based on the IC50 value", "result": 48, "unit": "%"},
      {"measurement": "Stabilization of TTR tetramer in human plasma", "setting": "plasma TTR; human plasma, 4 M urea", "result": "effectively stabilizes TTR at a stoichiometric ratio in plasma; also recorded: pronounced stabilizing effect on TTR is observed even at concentrations as low as 4 μM"}
    ]},
    {"molecule": "O=C(O)c1ccc2nc(-c3cc(Cl)cc(Cl)c3)oc2c1", "note": "[Tafamidis, tafamidis]", "values": [
      {"measurement": "Aggregation of TTR at low pH (turbidity at 400 nm)", "setting": "WT-TTR", "result": "prevents the aggregation"},
      {"measurement": "Aggregation of TTRVal30Met at low pH (turbidity at 400 nm)", "setting": "V30M-TTR", "result": "prevents the aggregation"},
      {"measurement": "Clinically beneficial plasma concentration", "setting": "[5]", "result": "3.5 to 8.5", "unit": "µM"},
      {"measurement": "Cell survival in presence of cytotoxic TTR", "setting": "[2]", "result": "increased cell survival to essentially that of the untreated control cells"},
      {"measurement": "Saturation level of TTR", "setting": "plasma TTR; from IC50 around 5 μM and tafamidis plasma concentration 3.5–8.5 μM, TTR 4 μM", "result": "31–56%"}
    ]}
  ]
}
